Numbers after ± are expanded uncertainties.
Assay: xn = mol fraction of the nth substance listed
Settings: 101.3 kPa, Liquid

**Q.** What does the source list for `COC(=O)OC` [dimethyl carbonate] + CCCCCC?
**A.** mass density (293.15 K, x1 = 0.0961): 685.68 ± 0.64 kg/m3; viscosity (293.15 K, x1 = 0.0961): 0.3032 ± 0.0075 mPa·s; mass density (293.15 K, x1 = 0.193): 712.34 ± 0.6 kg/m3; viscosity (293.15 K, x1 = 0.193): 0.3094 ± 0.0075 mPa·s; mass density (293.15 K, x1 = 0.2909): 741.99 ± 0.55 kg/m3; viscosity (293.15 K, x1 = 0.2909): 0.3213 ± 0.0076 mPa·s; mass density (293.15 K, x1 = 0.3894): 774.82 ± 0.5 kg/m3; viscosity (293.15 K, x1 = 0.3894): 0.341 ± 0.0077 mPa·s; mass density (293.15 K, x1 = 0.489): 811.38 ± 0.44 kg/m3; viscosity (293.15 K, x1 = 0.489): 0.3647 ± 0.0078 mPa·s; mass density (293.15 K, x1 = 0.5893): 851.98 ± 0.38 kg/m3; viscosity (293.15 K, x1 = 0.5893): 0.3939 ± 0.008 mPa·s; mass density (293.15 K, x1 = 0.6906): 897.34 ± 0.32 kg/m3; viscosity (293.15 K, x1 = 0.6906): 0.427 ± 0.0082 mPa·s; mass density (293.15 K, x1 = 0.7928): 948.58 ± 0.25 kg/m3; viscosity (293.15 K, x1 = 0.7928): 0.4715 ± 0.0085 mPa·s; mass density (293.15 K, x1 = 0.896): 1006.55 ± 0.21 kg/m3; viscosity (293.15 K, x1 = 0.896): 0.542 ± 0.0091 mPa·s; mass density (293.15 K, x1 = 1): 1069.54 ± 0.24 kg/m3; viscosity (293.15 K, x1 = 1): 0.6173 ± 0.0096 mPa·s; mass density (298.15 K, x1 = 0.0961): 680.92 ± 0.65 kg/m3; viscosity (298.15 K, x1 = 0.0961): 0.2901 ± 0.0074 mPa·s; mass density (298.15 K, x1 = 0.193): 707.38 ± 0.6 kg/m3; viscosity (298.15 K, x1 = 0.193): 0.294 ± 0.0074 mPa·s; mass density (298.15 K, x1 = 0.2909): 736.8 ± 0.56 kg/m3; viscosity (298.15 K, x1 = 0.2909): 0.306 ± 0.0075 mPa·s; mass density (298.15 K, x1 = 0.3894): 769.42 ± 0.51 kg/m3; viscosity (298.15 K, x1 = 0.3894): 0.3232 ± 0.0076 mPa·s; mass density (298.15 K, x1 = 0.489): 805.8 ± 0.45 kg/m3; viscosity (298.15 K, x1 = 0.489): 0.3449 ± 0.0077 mPa·s; mass density (298.15 K, x1 = 0.5893): 846.19 ± 0.39 kg/m3; viscosity (298.15 K, x1 = 0.5893): 0.3709 ± 0.0079 mPa·s; mass density (298.15 K, x1 = 0.6906): 891.45 ± 0.33 kg/m3; viscosity (298.15 K, x1 = 0.6906): 0.4024 ± 0.0081 mPa·s; mass density (298.15 K, x1 = 0.7928): 942.39 ± 0.26 kg/m3; viscosity (298.15 K, x1 = 0.7928): 0.4472 ± 0.0084 mPa·s; mass density (298.15 K, x1 = 0.896): 1000.17 ± 0.21 kg/m3; viscosity (298.15 K, x1 = 0.896): 0.5031 ± 0.0088 mPa·s; mass density (298.15 K, x1 = 1): 1062.95 ± 0.23 kg/m3; viscosity (298.15 K, x1 = 1): 0.5734 ± 0.0093 mPa·s; mass density (303.15 K, x1 = 0.0961): 676.14 ± 0.65 kg/m3; viscosity (303.15 K, x1 = 0.0961): 0.279 ± 0.0073 mPa·s; mass density (303.15 K, x1 = 0.193): 702.37 ± 0.61 kg/m3; viscosity (303.15 K, x1 = 0.193): 0.2817 ± 0.0073 mPa·s; mass density (303.15 K, x1 = 0.2909): 731.62 ± 0.57 kg/m3; viscosity (303.15 K, x1 = 0.2909): 0.2923 ± 0.0074 mPa·s; mass density (303.15 K, x1 = 0.3894): 764.04 ± 0.52 kg/m3; viscosity (303.15 K, x1 = 0.3894): 0.3061 ± 0.0075 mPa·s; mass density (303.15 K, x1 = 0.489): 800.21 ± 0.46 kg/m3; viscosity (303.15 K, x1 = 0.489): 0.3252 ± 0.0076 mPa·s; mass density (303.15 K, x1 = 0.5893): 840.41 ± 0.4 kg/m3; viscosity (303.15 K, x1 = 0.5893): 0.3502 ± 0.0077 mPa·s; mass density (303.15 K, x1 = 0.6906): 885.48 ± 0.33 kg/m3; viscosity (303.15 K, x1 = 0.6906): 0.3808 ± 0.0079 mPa·s; mass density (303.15 K, x1 = 0.7928): 936.19 ± 0.27 kg/m3; viscosity (303.15 K, x1 = 0.7928): 0.4221 ± 0.0082 mPa·s; mass density (303.15 K, x1 = 0.896): 993.78 ± 0.21 kg/m3; viscosity (303.15 K, x1 = 0.896): 0.4748 ± 0.0086 mPa·s; mass density (303.15 K, x1 = 1): 1056.35 ± 0.23 kg/m3; viscosity (303.15 K, x1 = 1): 0.5403 ± 0.009 mPa·s; mass density (313.15 K, x1 = 0.0961): 666.41 ± 0.67 kg/m3; viscosity (313.15 K, x1 = 0.0961): 0.2513 ± 0.0072 mPa·s; mass density (313.15 K, x1 = 0.193): 692.21 ± 0.63 kg/m3; viscosity (313.15 K, x1 = 0.193): 0.2555 ± 0.0072 mPa·s; mass density (313.15 K, x1 = 0.2909): 721.04 ± 0.58 kg/m3; viscosity (313.15 K, x1 = 0.2909): 0.2645 ± 0.0072 mPa·s; mass density (313.15 K, x1 = 0.3894): 753.05 ± 0.53 kg/m3; viscosity (313.15 K, x1 = 0.3894): 0.277 ± 0.0073 mPa·s; mass density (313.15 K, x1 = 0.489): 788.82 ± 0.48 kg/m3; viscosity (313.15 K, x1 = 0.489): 0.2938 ± 0.0074 mPa·s; mass density (313.15 K, x1 = 0.5893): 828.62 ± 0.42 kg/m3; viscosity (313.15 K, x1 = 0.5893): 0.3163 ± 0.0075 mPa·s; mass density (313.15 K, x1 = 0.6906): 873.34 ± 0.35 kg/m3; viscosity (313.15 K, x1 = 0.6906): 0.3417 ± 0.0077 mPa·s; mass density (313.15 K, x1 = 0.7928): 923.65 ± 0.28 kg/m3; viscosity (313.15 K, x1 = 0.7928): 0.3763 ± 0.0079 mPa·s; mass density (313.15 K, x1 = 0.896): 980.84 ± 0.22 kg/m3; viscosity (313.15 K, x1 = 0.896): 0.4229 ± 0.0082 mPa·s; mass density (313.15 K, x1 = 1): 1043.01 ± 0.21 kg/m3; viscosity (313.15 K, x1 = 1): 0.4807 ± 0.0086 mPa·s; mass density (323.15 K, x1 = 0.0961): 656.55 ± 0.68 kg/m3; viscosity (323.15 K, x1 = 0.0961): 0.2333 ± 0.0071 mPa·s; mass density (323.15 K, x1 = 0.193): 681.9 ± 0.64 kg/m3; viscosity (323.15 K, x1 = 0.193): 0.2344 ± 0.0071 mPa·s; mass density (323.15 K, x1 = 0.2909): 710.27 ± 0.6 kg/m3; viscosity (323.15 K, x1 = 0.2909): 0.2423 ± 0.0071 mPa·s; mass density (323.15 K, x1 = 0.3894): 741.92 ± 0.55 kg/m3; viscosity (323.15 K, x1 = 0.3894): 0.2536 ± 0.0072 mPa·s; mass density (323.15 K, x1 = 0.489): 777.28 ± 0.49 kg/m3; viscosity (323.15 K, x1 = 0.489): 0.2681 ± 0.0073 mPa·s; mass density (323.15 K, x1 = 0.5893): 816.69 ± 0.43 kg/m3; viscosity (323.15 K, x1 = 0.5893): 0.288 ± 0.0074 mPa·s; mass density (323.15 K, x1 = 0.6906): 861.07 ± 0.37 kg/m3; viscosity (323.15 K, x1 = 0.6906): 0.3101 ± 0.0075 mPa·s; mass density (323.15 K, x1 = 0.7928): 910.98 ± 0.3 kg/m3; viscosity (323.15 K, x1 = 0.7928): 0.3404 ± 0.0077 mPa·s; mass density (323.15 K, x1 = 0.896): 967.8 ± 0.23 kg/m3; viscosity (323.15 K, x1 = 0.896): 0.3781 ± 0.0079 mPa·s; mass density (323.15 K, x1 = 1): 1029.59 ± 0.19 kg/m3; viscosity (323.15 K, x1 = 1): 0.427 ± 0.0082 mPa·s; mass density (333.15 K, x1 = 0.0961): 646.44 ± 0.7 kg/m3; viscosity (333.15 K, x1 = 0.0961): 0.213 ± 0.007 mPa·s; mass density (333.15 K, x1 = 0.193): 671.36 ± 0.66 kg/m3; viscosity (333.15 K, x1 = 0.193): 0.2167 ± 0.007 mPa·s; mass density (333.15 K, x1 = 0.2909): 699.25 ± 0.61 kg/m3; viscosity (333.15 K, x1 = 0.2909): 0.2239 ± 0.007 mPa·s; mass density (333.15 K, x1 = 0.3894): 730.55 ± 0.56 kg/m3; viscosity (333.15 K, x1 = 0.3894): 0.234 ± 0.0071 mPa·s; mass density (333.15 K, x1 = 0.489): 765.5 ± 0.51 kg/m3; viscosity (333.15 K, x1 = 0.489): 0.2466 ± 0.0071 mPa·s; mass density (333.15 K, x1 = 0.5893): 804.52 ± 0.45 kg/m3; viscosity (333.15 K, x1 = 0.5893): 0.2639 ± 0.0072 mPa·s; mass density (333.15 K, x1 = 0.6906): 848.53 ± 0.39 kg/m3; viscosity (333.15 K, x1 = 0.6906): 0.2842 ± 0.0073 mPa·s; mass density (333.15 K, x1 = 0.7928): 898.13 ± 0.31 kg/m3; viscosity (333.15 K, x1 = 0.7928): 0.3117 ± 0.0075 mPa·s; mass density (333.15 K, x1 = 0.896): 954.54 ± 0.24 kg/m3; viscosity (333.15 K, x1 = 0.896): 0.3447 ± 0.0077 mPa·s; mass density (333.15 K, x1 = 1): 1016 ± 0.18 kg/m3; viscosity (333.15 K, x1 = 1): 0.3893 ± 0.008 mPa·s

From the NIST ThermoML archive (doi:10.1021/je049777o)
